Reference: ChEMBL document CHEMBL1125472, “5-lipoxygenase: properties, pharmacology, and the quinolinyl(bridged)aryl class of inhibitors” (J Med Chem, 1992)

Legend:
Mus musculus [1] = species on record: Mus musculus; assay: The effective dose which inhibits […] induced contact hypersensitivity in mouse ears; format: functional
[2] = target: T1, Prostaglandin G/H synthase (cyclooxygenase) (Mus musculus, UniProt P22437+Q05769); assay: The compound was tested for inhibitory activity against cyclooxygenase in mouse macrophages; format: protein assay
T1 sequence (P22437 whole entry): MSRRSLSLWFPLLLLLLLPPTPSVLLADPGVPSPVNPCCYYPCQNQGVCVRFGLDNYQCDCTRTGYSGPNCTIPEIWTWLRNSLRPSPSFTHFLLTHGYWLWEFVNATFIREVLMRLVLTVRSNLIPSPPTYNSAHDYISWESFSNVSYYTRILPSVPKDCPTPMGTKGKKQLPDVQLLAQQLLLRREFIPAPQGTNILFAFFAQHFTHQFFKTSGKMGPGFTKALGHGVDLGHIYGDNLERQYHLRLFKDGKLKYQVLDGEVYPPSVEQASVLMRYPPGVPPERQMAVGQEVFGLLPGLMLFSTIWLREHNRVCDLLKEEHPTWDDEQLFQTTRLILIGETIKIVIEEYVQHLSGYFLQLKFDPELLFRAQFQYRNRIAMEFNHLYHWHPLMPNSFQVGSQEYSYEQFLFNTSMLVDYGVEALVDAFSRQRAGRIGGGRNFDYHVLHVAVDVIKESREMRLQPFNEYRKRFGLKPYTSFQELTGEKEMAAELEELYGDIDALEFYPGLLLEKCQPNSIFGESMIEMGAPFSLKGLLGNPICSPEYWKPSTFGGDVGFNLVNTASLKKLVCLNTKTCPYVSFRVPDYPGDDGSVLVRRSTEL
T1 sequence (Q05769 whole entry): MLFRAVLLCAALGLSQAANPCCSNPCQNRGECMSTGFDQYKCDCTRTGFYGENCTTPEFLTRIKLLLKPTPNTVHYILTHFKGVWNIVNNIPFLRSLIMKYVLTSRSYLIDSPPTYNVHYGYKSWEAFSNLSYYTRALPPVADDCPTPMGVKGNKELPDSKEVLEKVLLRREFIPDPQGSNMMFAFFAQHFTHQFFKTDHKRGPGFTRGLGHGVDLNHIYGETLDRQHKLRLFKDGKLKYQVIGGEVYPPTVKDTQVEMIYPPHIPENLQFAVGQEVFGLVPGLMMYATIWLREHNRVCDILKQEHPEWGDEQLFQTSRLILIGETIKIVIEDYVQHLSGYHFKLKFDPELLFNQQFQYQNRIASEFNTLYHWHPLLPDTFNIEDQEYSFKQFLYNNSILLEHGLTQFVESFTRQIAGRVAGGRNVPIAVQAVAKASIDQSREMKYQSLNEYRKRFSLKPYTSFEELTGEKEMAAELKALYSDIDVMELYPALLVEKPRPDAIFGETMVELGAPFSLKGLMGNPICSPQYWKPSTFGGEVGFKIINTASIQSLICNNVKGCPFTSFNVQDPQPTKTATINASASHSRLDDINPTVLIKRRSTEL

[3] = target: T2, Polyunsaturated fatty acid 5-lipoxygenase (Rattus norvegicus, UniProt P12527); assay: The compound was tested for inhibitory activity against 5-lipoxygenase in rat polymorphonuclear leukocytes[PMNS]; format: cell-based
T2 sequence (P12527 whole entry): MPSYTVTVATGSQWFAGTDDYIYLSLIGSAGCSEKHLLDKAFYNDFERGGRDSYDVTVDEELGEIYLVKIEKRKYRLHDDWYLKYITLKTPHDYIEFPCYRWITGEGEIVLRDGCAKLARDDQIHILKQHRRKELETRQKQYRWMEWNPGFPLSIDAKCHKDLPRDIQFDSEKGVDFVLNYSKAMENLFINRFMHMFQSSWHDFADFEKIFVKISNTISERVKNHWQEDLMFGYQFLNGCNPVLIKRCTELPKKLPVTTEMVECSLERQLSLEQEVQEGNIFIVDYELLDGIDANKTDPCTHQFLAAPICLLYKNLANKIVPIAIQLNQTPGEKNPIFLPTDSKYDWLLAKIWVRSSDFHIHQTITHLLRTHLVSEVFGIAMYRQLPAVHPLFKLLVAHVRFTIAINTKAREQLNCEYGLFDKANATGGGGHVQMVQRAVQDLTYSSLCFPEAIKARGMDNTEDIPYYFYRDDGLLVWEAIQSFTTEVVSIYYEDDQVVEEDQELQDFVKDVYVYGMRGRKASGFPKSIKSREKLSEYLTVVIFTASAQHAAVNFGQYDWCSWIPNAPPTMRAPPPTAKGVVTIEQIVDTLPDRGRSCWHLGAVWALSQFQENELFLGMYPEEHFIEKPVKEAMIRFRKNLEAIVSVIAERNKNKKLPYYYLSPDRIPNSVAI

Mus musculus [4] = species on record: Mus musculus; assay: The effective dose which inhibits […](AA) and tetradecanoylphorbol acetate(TPA) induced inflammation; format: functional
Cavia porcellus = species on record: Cavia porcellus; assay: The effective dose which inhibits UVB-induced guinea pig skin erythema; format: functional

IC50 [2]: 44000 nM
IC50 [3]: 400 nM
Compound: c1ccc2nc(COc3cccc4ccccc34)ccc2c1
ED50 (Mus musculus [1]): 0.4 mg ear-1
ED50 (Mus musculus [4]): 0.3 mg ear-1
ED50 (Cavia porcellus): 0.25 mg/spot
